This is an account of results in patent US20260274891A1, “¿ OPIOID RECEPTOR AGONIST AND USE THEREOF” (CHENGDU AODA BIOTECHNOLOGY CO., LTD., priority 2023, published 2026).

pEC50: −log10 of the molar value. Square brackets hold non-standard residues; d marks the D form. Peptide text beside a SMILES is read from it. * marks the point of attachment. Piperidin1yl(4-NH2,4-COOH) = NC1(C(=O)O)CCN(*)CC1; Piperidinyl(4-NH2,4-CONH2) = NC(=O)C1(N)CCN(*)CC1; X10 = NCCCC[C@@H](NC(=O)C1(N)CCN(*)CC1)C(=O)O; X1 = NCCCC[C@@H](NC(=O)C1(N)CCN(*)CC1)C(N)=O; X4 = NCCCC[C@H](NC(=O)C1(N)CCN(*)CC1)C(=O)O; Trifluoroethyl = FC(F)(F)C*; iPr = CC(C)*

For the experiment, the target named is T1, human κ opioid receptor (OPRK1) (Homo sapiens, UniProt P41145).
T1 construct: expressed in transfected cells; host or cells: CHO-K1
In words: Determination of activities of κ receptor agonists: inhibition of forskolin-stimulated cAMP release (HTRF) in stably transfected CHO-K1 cells. As to conditions: for Relative Activity %: relative to Difelikefalin = 100.0. Format: cell-based. From the text:
Gi-coupled human κ opioid receptor (OPRK1), upon stimulation with its specific opioid receptor agonists, can inhibit the intracellular adenylate cyclase pathway, and decrease cAMP levels. Forskolin can stimulate cAMP release in cell lines highly expressing opioid receptors. By stimulating cell lines stably transfected with opioid receptors, the inhibitory effect of a test compound on forskolin-stimulated cAMP release can be measured to determine the activity of the compound. The relative light units (RLU) from the cells after stimulation with different doses were measured via the homogeneous time-resolved fluorescence technique (HTRF), and the EC50 value of the agonist was subsequently calculated. This activity determination method is a currently commonly used method for determining the activities of opioid receptor agonists at home and abroad.
A CHO-K1 cell line stably expressing opioid receptors was used. Stably transfected cells were stimulated with various concentrations of agonists (under the stimulation of a certain concentration of forskolin). The relative light units from the cells after stimulation with different doses were measured, from which the EC50 value of the agonist was subsequently obtained by calculation.

T1 sequence (P41145 whole entry): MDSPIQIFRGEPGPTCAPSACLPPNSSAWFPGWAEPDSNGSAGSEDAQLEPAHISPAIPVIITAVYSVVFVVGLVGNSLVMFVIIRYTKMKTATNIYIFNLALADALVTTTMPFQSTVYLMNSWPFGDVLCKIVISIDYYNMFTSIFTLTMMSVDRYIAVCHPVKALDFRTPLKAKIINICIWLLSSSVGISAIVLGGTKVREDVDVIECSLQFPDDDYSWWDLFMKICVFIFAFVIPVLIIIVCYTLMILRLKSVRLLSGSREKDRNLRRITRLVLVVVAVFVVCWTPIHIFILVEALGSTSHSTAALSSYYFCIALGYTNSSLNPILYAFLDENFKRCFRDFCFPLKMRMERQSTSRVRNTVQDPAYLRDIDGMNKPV

Broadly, the pEC50 is the negative decadic logarithm of the EC50, by convention in mol/L. Lower therefore signals a high EC50. Take `CC(C)C[C@@H](NC(=O)[C@@H](Cc1ccc(OCC(F)(F)F)cc1)NC(=O)[C@H](N)Cc1ccccc1)C(=O)N[C@H](CCCCN)C(=O)N1CCC(N)(C(N)=O)CC1` [Compound 91, D-Phe-D-Tyr(CH2CF3)-D-Leu-D-Lys-4-aminopiperidine-4-carboxamide-NH2] (H-[dF][dY](Trifluoroethyl)[dL][dK]-{Piperidinyl(4-NH2,4-CONH2)}; N-terminus assumed): the pEC50 is 9.96 and the “Relative Activity %” value was determined as 550.0%.

For the compound `CC(C)C[C@@H](NC(=O)[C@@H](Cc1ccc(OCC(F)(F)F)cc1)NC(=O)[C@H](N)Cc1ccccc1)C(=O)N[C@H](CCCCN)C(=O)N1CCC(N)(C(=O)O)CC1` [Compound 92, D-Phe-D-Tyr(CH2CF3)-D-Leu-D-Lys-4-aminopiperidine-4-carboxamide-OH] (H-[dF][dY](Trifluoroethyl)[dL][dK]-{Piperidin1yl(4-NH2,4-COOH)}; N-terminus assumed), the pEC50 was 9.96 and the “Relative Activity %” value came to 558.6%.

As to `CC(C)C[C@@H](NC(=O)[C@@H](Cc1ccc(OCC(F)(F)F)cc1)NC(=O)[C@H](N)Cc1ccccc1)C(=O)N[C@H](CCCCN)C(=O)N1CCC(N)(C(=O)N[C@H](CCCCN)C(N)=O)CC1` [Compound 95, D-Phe-D-Tyr(CH2CF3)-D-Leu-D-Lys-4-aminopiperidine-4-carboxamide-D-Lys-NH2] (H-[dF][dY](Trifluoroethyl)[dL][dK]-X1; N-terminus assumed), the pEC50 was 10.30 and the “Relative Activity %” value came to 1202.4%.

On to `CC(C)C[C@@H](NC(=O)[C@@H](Cc1ccc(OCC(F)(F)F)cc1)NC(=O)[C@H](N)Cc1ccccc1)C(=O)N[C@H](CCCCN)C(=O)N1CCC(N)(C(=O)N[C@H](CCCCN)C(=O)O)CC1` [Compound 96, D-Phe-D-Tyr(CH2CF3)-D-Leu-D-Lys-4-aminopiperidine-4-carboxamide-D-Lys-OH] (H-[dF][dY](Trifluoroethyl)[dL][dK]-X10; N-terminus assumed), for which the pEC50 was 10.31 and the “Relative Activity %” value is given as 1229.1%.

Take `CC(C)C[C@@H](NC(=O)[C@@H](Cc1ccc(OC(C)C)cc1)NC(=O)[C@H](N)Cc1ccccc1)C(=O)N[C@H](CCCCN)C(=O)N1CCC(N)(C(=O)O)CC1` [Compound 98, D-Phe-D-Tyr(Ipr)-D-Leu-D-Lys-4-aminopiperidine-4-carboxamide-OH] (H-[dF][dY](iPr)[dL][dK]-{Piperidin1yl(4-NH2,4-COOH)}; N-terminus assumed): the pEC50 was 9.84 and the “Relative Activity %” value is on record as 418.2%.

Take `CC(C)C[C@@H](NC(=O)[C@@H](Cc1ccc(OC(C)C)cc1)NC(=O)[C@H](N)Cc1ccccc1)C(=O)N[C@H](CCCCN)C(=O)N1CCC(N)(C(=O)N[C@@H](CCCCN)C(=O)O)CC1` [Compound 100, D-Phe-D-Tyr(Ipr)-D-Leu-D-Lys-4-aminopiperidine-4-carboxamide-Lys-OH] (H-[dF][dY](iPr)[dL][dK]-X4; N-terminus assumed): the negative logarithm of the EC50 (pEC50) was 10.15 and the “Relative Activity %” value was found to be 848.0%.

In the case of `CC(C)C[C@@H](NC(=O)[C@@H](Cc1ccc(OC(C)C)cc1)NC(=O)[C@H](N)Cc1ccccc1)C(=O)N[C@H](CCCCN)C(=O)N1CCC(N)(C(=O)N[C@H](CCCCN)C(N)=O)CC1` [Compound 101, D-Phe-D-Tyr(Ipr)-D-Leu-D-Lys-4-aminopiperidine-4-carboxamide-D-Lys-NH2] (H-[dF][dY](iPr)[dL][dK]-X1; N-terminus assumed), the pEC50 is 10.14 and the “Relative Activity %” value is recorded as 834.1%.

`CC(C)C[C@@H](NC(=O)[C@@H](Cc1ccc(OC(C)C)cc1)NC(=O)[C@H](N)Cc1ccccc1)C(=O)N[C@H](CCCCN)C(=O)N1CCC(N)(C(=O)N[C@H](CCCCN)C(=O)O)CC1` [Compound 102, D-Phe-D-Tyr(Ipr)-D-Leu-D-Lys-4-aminopiperidine-4-carboxamide-D-Lys-OH] (H-[dF][dY](iPr)[dL][dK]-X10; N-terminus assumed): the pEC50 is 10.14 and the “Relative Activity %” value came to 831.8%.

On to `CC(C)C[C@@H](NC(=O)[C@@H](Cc1ccc(F)cc1)NC(=O)[C@H](N)Cc1ccccc1)C(=O)N[C@H](CCCCN)C(=O)N1CCC(N)(C(=O)O)CC1` [Compound 104, D-Phe-D-Phe(4-F)-D-Leu-D-Lys-4-aminopiperidine-4-carboxamide-OH], for which the pEC50 is 9.67 and the “Relative Activity %” value was determined as 281.9%.

`CC(C)C[C@@H](NC(=O)[C@@H](Cc1ccc(F)cc1)NC(=O)[C@H](N)Cc1ccccc1)C(=O)N[C@H](CCCCN)C(=O)N1CCC(N)(C(=O)N[C@@H](CCCCN)C(N)=O)CC1` [Compound 105, D-Phe-D-Phe(4-F)-D-Leu-D-Lys-4-aminopiperidine-4-carboxamide-Lys-NH2]: the pEC50 is 10.10 and the “Relative Activity %” value is on record as 762.8%.

As to `CC(C)C[C@@H](NC(=O)[C@@H](Cc1ccc(Cl)cc1)NC(=O)[C@H](N)Cc1ccccc1)C(=O)N[C@H](CCCCN)C(=O)N1CCC(N)(C(=O)O)CC1` [Compound 110, D-Phe-D-Phe(4-C1)-D-Leu-D-Lys-4-aminopiperidine-4-carboxamide-OH], the pEC50 was 9.83 and the “Relative Activity %” value is recorded as 408.6%.

Regarding `CC(C)C[C@@H](NC(=O)[C@@H](Cc1ccc(Cl)cc1)NC(=O)[C@H](N)Cc1ccccc1)C(=O)N[C@H](CCCCN)C(=O)N1CCC(N)(C(=O)N[C@@H](CCCCN)C(N)=O)CC1` [Compound 111, D-Phe-D-Phe(4-C1)-D-Leu-D-Lys-4-aminopiperidine-4-carboxamide-Lys-NH2], the pEC50 is 10.28 and the “Relative Activity %” value stood at 1165.5%.

Regarding `CC(C)C[C@@H](NC(=O)[C@@H](Cc1ccc(Cl)cc1)NC(=O)[C@H](N)Cc1ccccc1)C(=O)N[C@H](CCCCN)C(=O)N1CCC(N)(C(=O)N[C@@H](CCCCN)C(=O)O)CC1` [Compound 112, D-Phe-D-Phe(4-C1)-D-Leu-D-Lys-4-aminopiperidine-4-carboxamide-Lys-OH], the negative logarithm of the EC50 (pEC50) was 10.29 and the “Relative Activity %” value was 1195.3%.

Consider `CC(C)C[C@@H](NC(=O)[C@@H](Cc1ccc(Cl)cc1)NC(=O)[C@H](N)Cc1ccccc1)C(=O)N[C@H](CCCCN)C(=O)N1CCC(N)(C(=O)N[C@H](CCCCN)C(=O)O)CC1` [Compound 114, D-Phe-D-Phe(4-C1)-D-Leu-D-Lys-4-aminopiperidine-4-carboxamide-D-Lys-OH], for which the pEC50 is 10.29 and the “Relative Activity %” value came out at 1179.0%.

`CC(C)C[C@@H](NC(=O)[C@@H](Cc1ccc(Br)cc1)NC(=O)[C@H](N)Cc1ccccc1)C(=O)N[C@H](CCCCN)C(=O)N1CCC(N)(C(=O)O)CC1` [Compound 116, D-Phe-D-Phe(4-Br)-D-Leu-D-Lys-4-aminopiperidine-4-carboxamide-OH]: the pEC50 was 9.87 and the “Relative Activity %” value is listed as 448.1%.

Turning to `CC(C)C[C@@H](NC(=O)[C@@H](Cc1ccc(Br)cc1)NC(=O)[C@H](N)Cc1ccccc1)C(=O)N[C@H](CCCCN)C(=O)N1CCC(N)(C(=O)N[C@@H](CCCCN)C(=O)O)CC1` [Compound 118, D-Phe-D-Phe(4-Br)-D-Leu-D-Lys-4-aminopiperidine-4-carboxamide-Lys-OH], the pEC50 was 10.20 and the “Relative Activity %” value worked out at 951.7%.

In the case of `CC(C)C[C@@H](NC(=O)[C@@H](Cc1ccc(Br)cc1)NC(=O)[C@H](N)Cc1ccccc1)C(=O)N[C@H](CCCCN)C(=O)N1CCC(N)(C(=O)N[C@H](CCCCN)C(N)=O)CC1` [Compound 119, D-Phe-D-Phe(4-Br)-D-Leu-D-Lys-4-aminopiperidine-4-carboxamide-D-Lys-NH2], the pEC50 was 10.21 and the “Relative Activity %” value is 987.3%.

Consider `CC(C)C[C@@H](NC(=O)[C@@H](Cc1ccc(I)cc1)NC(=O)[C@H](N)Cc1ccccc1)C(=O)N[C@H](CCCCN)C(=O)N1CCC(N)(C(N)=O)CC1` [Compound 121, D-Phe-D-Phe(4-I)-D-Leu-D-Lys-4-aminopiperidine-4-carboxamide-NH2], for which the pEC50 was 9.91 and the “Relative Activity %” value is reported as 496.1%.

For the compound `CC(C)C[C@@H](NC(=O)[C@@H](Cc1ccc(I)cc1)NC(=O)[C@H](N)Cc1ccccc1)C(=O)N[C@H](CCCCN)C(=O)N1CCC(N)(C(=O)O)CC1` [Compound 122, D-Phe-D-Phe(4-I)-D-Leu-D-Lys-4-aminopiperidine-4-carboxamide-OH], the pEC50 is 9.92 and the “Relative Activity %” value amounted to 505.6%.

For the compound `CC(C)C[C@@H](NC(=O)[C@@H](Cc1ccc(I)cc1)NC(=O)[C@H](N)Cc1ccccc1)C(=O)N[C@H](CCCCN)C(=O)N1CCC(N)(C(=O)N[C@@H](CCCCN)C(N)=O)CC1` [Compound 123, D-Phe-D-Phe(4-I)-D-Leu-D-Lys-4-aminopiperidine-4-carboxamide-Lys-NH2], the pEC50 is 10.27 and the “Relative Activity %” value is 1135.0%.

With `CC(C)C[C@@H](NC(=O)[C@@H](Cc1ccc(I)cc1)NC(=O)[C@H](N)Cc1ccccc1)C(=O)N[C@H](CCCCN)C(=O)N1CCC(N)(C(=O)N[C@@H](CCCCN)C(=O)O)CC1` [Compound 124, D-Phe-D-Phe(4-I)-D-Leu-D-Lys-4-aminopiperidine-4-carboxamide-Lys-OH], the pEC50 was 10.25 and the “Relative Activity %” value was 1088.2%.

With `CC(C)C[C@@H](NC(=O)[C@@H](Cc1ccc(I)cc1)NC(=O)[C@H](N)Cc1ccccc1)C(=O)N[C@H](CCCCN)C(=O)N1CCC(N)(C(=O)N[C@H](CCCCN)C(N)=O)CC1` [Compound 125, D-Phe-D-Phe(4-I)-D-Leu-D-Lys-4-aminopiperidine-4-carboxamide-D-Lys-NH2], the negative logarithm of the EC50 (pEC50) was 10.26 and the “Relative Activity %” value stood at 1104.0%.
